# From patent US20170029388A1, “Treatment of Neurodegenerative Diseases with Asparagine Endopeptidase (AEP) Inhibitors and Compositions Related Thereto” (INTERCONTINENTAL GREAT BRANDS LLC, priority 2014, published 2017)
# Read-outs that look alike come from different tables or passages of the source.
# Assays:
# [1] = system: cleavage of the amyloid precursor protein (APP); test: OGD in primary cortical neurons, APP cleavage (immunoblot); type: cell-based
# Procedure: (§1) A. AEP activity, measured in primary neuronal cultures with 5 μM Cbz-Ala-Ala-Asn-AMC (x-axis denotes neurons were treated with 0.1 μM or 1.0 μM specified compound). B. Caspase activity, measured in primary neuronal cultures with 5 μM Ac-Asp-Glu-Val-Asp-AMC. C. Cathepsin activity, measured in primary neuronal cultures with 5 μM D-Val-Leu-Lys-AMC. D. Inhibition of APP cleavage. Lysates of primary cortical neurons pre-incubated with compounds for 30 min, underwent OGD for 4 hrs, were reperfused for 18 hrs (normoxia neurons remained at normoxic conditions). E. APP can be cleaved in a dose-dependent manner. Lysates of primary cortical neurons pre-incubated with compounds for 30 min, underwent OGD for 4 hrs, were reperfused for 18 hrs (normoxia neurons remained at normoxic conditions).
# Depriving cells of oxygen and glucose is a cellular model that is employed to trigger acidosis in cultured cells. The efficacy of the compounds in a cellular model of oxygen-glucose deprivation (OGD) was determined in an effort to mimic the effects of stroke in primary cultured neurons. As a result of depriving neurons of oxygen and glucose-containing medium, AEP activity was doubled (FIG. 7A, ‘DMSO-Norm’ compared to ‘DMSO-OGD’), while Caspase-3 and Cathepsin activities remained relatively unchanged. […] Cleavage of APP is observed in response to only DMSO treatment (FIG. 7D, lane 2), and it appears that upon the treatment of 1 μM of compounds 10, 11, and 12, and just 0.1 μM of compounds 31, 38 and 64, the cleavage was blocked, presumably due to AEP inhibition.
# Compounds were pre-incubated with primary culture neurons, DIV13, for 30 min. The medium was exchanged for glucose-free DMEM and neurons were de-gased and incubated at 37° C., 95% N2/5% CO2 for 4 hrs with compounds. The medium was exchanged for DMEM and supplemented with compounds, then neurons were reperfused for 18 hrs under normoxic conditions. The neuronal lysates were prepared for AEP, Caspase-3 and Cathepsin assays. Moreover, immunoblotting analysis was conducted with the neuronal lysates using anti-APP, anti-AEP antibodies.
# [2] = system: CYP3A; test: CYP inhibition screening, CYP3A-Testosterone; type: in vitro ADME
# [3] = system: AEP; test: Oxygen-glucose deprivation (OGD) in primary neurons, AEP activity; type: cell-based; settings: 0.1 μM or 1.0 μM compound
# Procedure: as §1
# Depriving cells of oxygen and glucose is a cellular model that is employed to trigger acidosis in cultured cells. The efficacy of the compounds in a cellular model of oxygen-glucose deprivation (OGD) was determined in an effort to mimic the effects of stroke in primary cultured neurons. As a result of depriving neurons of oxygen and glucose-containing medium, AEP activity was doubled (FIG. 7A, ‘DMSO-Norm’ compared to ‘DMSO-OGD’), while Caspase-3 and Cathepsin activities remained relatively unchanged. […]
# [4] = molecular target: CYP2D6 (Homo sapiens, UniProt P10635); test: CYP inhibition screening, CYP2D6; type: in vitro ADME
# Sequence of CYP2D6 (P10635 whole entry): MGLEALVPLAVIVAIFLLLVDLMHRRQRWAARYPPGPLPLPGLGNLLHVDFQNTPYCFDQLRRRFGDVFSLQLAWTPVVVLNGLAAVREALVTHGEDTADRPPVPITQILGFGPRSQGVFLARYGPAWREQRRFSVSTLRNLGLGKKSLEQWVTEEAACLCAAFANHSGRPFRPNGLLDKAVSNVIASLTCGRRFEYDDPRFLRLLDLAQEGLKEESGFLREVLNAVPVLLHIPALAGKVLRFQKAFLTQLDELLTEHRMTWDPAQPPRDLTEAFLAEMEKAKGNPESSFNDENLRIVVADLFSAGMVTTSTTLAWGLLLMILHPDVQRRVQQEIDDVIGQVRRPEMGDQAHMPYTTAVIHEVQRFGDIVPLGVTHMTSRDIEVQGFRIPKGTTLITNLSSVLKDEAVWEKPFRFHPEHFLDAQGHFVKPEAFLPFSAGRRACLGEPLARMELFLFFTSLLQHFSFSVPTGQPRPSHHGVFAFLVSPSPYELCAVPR
# [5] = molecular target: CYP2C19 (Homo sapiens, UniProt P33261); test: CYP inhibition screening, CYP2C19; type: in vitro ADME
# Sequence of CYP2C19 (P33261 whole entry): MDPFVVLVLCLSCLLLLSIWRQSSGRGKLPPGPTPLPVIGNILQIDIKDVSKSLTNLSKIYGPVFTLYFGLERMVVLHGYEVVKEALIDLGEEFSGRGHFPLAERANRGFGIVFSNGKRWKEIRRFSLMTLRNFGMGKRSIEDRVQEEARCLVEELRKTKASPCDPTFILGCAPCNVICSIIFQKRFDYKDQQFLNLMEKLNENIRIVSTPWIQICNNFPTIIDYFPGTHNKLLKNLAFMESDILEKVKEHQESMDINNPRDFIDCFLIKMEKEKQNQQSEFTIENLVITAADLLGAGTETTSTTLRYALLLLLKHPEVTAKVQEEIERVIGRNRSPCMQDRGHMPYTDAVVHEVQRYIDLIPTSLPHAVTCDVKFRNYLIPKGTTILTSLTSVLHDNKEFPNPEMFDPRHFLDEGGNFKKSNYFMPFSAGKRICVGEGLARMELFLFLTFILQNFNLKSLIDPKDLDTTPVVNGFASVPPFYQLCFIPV
# [6] = molecular target: T1, CYP1A2 (Homo sapiens, UniProt P05177); test: CYP inhibition screening, CYP1A2; type: in vitro ADME
# T1 sequence (P05177 1-516): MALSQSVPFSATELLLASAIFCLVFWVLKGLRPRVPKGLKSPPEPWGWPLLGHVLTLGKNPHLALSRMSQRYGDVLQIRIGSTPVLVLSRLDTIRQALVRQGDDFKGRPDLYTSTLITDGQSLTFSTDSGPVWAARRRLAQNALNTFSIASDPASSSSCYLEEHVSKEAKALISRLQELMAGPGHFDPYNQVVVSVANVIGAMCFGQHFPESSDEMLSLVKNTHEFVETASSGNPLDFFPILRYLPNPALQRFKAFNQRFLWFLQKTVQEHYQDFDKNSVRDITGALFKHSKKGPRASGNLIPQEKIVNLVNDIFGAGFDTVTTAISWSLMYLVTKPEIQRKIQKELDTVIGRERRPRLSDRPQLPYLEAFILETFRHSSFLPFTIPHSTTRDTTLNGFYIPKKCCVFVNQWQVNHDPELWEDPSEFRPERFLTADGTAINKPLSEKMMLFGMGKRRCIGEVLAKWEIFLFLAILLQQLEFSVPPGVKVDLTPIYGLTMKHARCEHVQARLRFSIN
# [7] = Liver microsomal stability, mouse; settings: mouse liver microsomes
# [8] = molecular target: CYP3A4 (Homo sapiens, UniProt P08684); test: CYP inhibition screening, CYP3A4-Midazolam; type: in vitro ADME
# Sequence of CYP3A4 (P08684 whole entry): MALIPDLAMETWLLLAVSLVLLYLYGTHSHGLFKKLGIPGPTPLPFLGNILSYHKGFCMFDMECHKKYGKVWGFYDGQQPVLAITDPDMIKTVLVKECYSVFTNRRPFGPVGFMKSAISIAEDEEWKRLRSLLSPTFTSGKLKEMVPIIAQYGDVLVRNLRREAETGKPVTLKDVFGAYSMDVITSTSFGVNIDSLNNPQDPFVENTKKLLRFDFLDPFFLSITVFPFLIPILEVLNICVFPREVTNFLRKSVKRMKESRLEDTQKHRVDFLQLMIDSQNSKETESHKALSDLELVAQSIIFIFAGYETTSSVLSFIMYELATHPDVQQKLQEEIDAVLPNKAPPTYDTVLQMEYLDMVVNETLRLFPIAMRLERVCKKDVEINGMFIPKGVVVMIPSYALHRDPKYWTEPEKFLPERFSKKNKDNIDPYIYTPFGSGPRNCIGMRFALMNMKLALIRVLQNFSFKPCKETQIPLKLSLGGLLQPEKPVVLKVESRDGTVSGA
# [9] = system: Caco-2 monolayer; test: Caco-2 monolayer permeability screen; type: in vitro ADME; settings: Caco-2
# Procedure: To explore the in vitro ADME profiles of the compounds, additional tests were conducted.
# [10] = molecular target: CYP2C9 (Homo sapiens, UniProt P11712); test: CYP inhibition screening, CYP2C9; type: in vitro ADME
# Sequence of CYP2C9 (P11712 whole entry): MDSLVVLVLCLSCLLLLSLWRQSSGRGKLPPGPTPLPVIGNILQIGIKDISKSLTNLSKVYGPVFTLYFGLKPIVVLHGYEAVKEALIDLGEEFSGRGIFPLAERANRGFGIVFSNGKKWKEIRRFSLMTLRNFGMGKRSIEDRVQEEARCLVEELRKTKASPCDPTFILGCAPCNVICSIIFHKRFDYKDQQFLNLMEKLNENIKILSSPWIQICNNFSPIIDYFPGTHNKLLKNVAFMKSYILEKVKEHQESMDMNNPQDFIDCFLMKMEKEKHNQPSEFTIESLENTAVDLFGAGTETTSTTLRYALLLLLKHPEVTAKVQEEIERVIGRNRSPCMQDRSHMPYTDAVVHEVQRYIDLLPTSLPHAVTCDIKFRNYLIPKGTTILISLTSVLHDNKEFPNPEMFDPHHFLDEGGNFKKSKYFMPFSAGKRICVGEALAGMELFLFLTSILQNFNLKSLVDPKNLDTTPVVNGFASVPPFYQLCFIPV
# [11] = Liver microsomal stability, human; settings: human liver microsomes
# [12] = PAMPA
# [13] = molecular target: Cathepsin-L (Homo sapiens, UniProt P07711); test: Cathepsin-L enzymatic assay (specificity); type: biochemical
# Sequence of Cathepsin-L (P07711 114-333, species assumed): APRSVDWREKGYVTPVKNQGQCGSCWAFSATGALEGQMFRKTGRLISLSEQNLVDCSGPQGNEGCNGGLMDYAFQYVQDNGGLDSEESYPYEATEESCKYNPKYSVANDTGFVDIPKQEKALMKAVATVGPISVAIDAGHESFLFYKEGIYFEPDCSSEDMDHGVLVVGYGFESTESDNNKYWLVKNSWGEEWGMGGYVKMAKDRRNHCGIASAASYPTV
# Procedure: (§2) Purified recombinant enzyme was incubated with various concentrations of inhibitor in appropriate assay buffers in the presence of increasing concentrations of inhibitor. The formation of fluorescent product was monitored in duplicate reactions and the data was fit to appropriate equations to calculate the IC50 values.
# (§3) To identify small-molecule inhibitors of AEP, a high-throughput screen was designed in conjunction with the Emory Chemical Biology Discovery Center. The screen incorporated mouse kidney lysates to assay a 54,384 compound library. […] Additional structural analysis and grouping allowed the compounds to be sorted into 8 distinct backbone families. […] The specificity of the compounds was also determined using four major cysteine proteases (FIG. 2).
# Cathepsin-L—100 nM enzyme was pre-incubated with inhibitor in assay buffer (100 mM Sodium Acetate pH 5.5, 1 mM EDTA) for 10 min at 37° C. The reaction was initiated upon addition of 25 μM substrate (D-Val-Leu-Lys-AMC (Bachem)).
# [14] = system: HepG2 cells; test: COMET assay and micronucleus assay (genotoxicity); type: cell-based, human; settings: 50 μM, 24 hr
# Procedure: A. MTT assay, in which 50 μM of each compound was incubated with HepG2 cells for 24 hrs. The compound-containing medium was removed and the cells were incubated with MTT solution for 3 hrs. Subsequently, the MTT solution was replaced with DMSO and the 0D570 was observed. B. LDH assay, in which 50 μM of each compound was incubated with primary culture neurons for 48 hrs. The media was then collected and incubated with LDH assay substrate for 30 min at room temp, in the dark. After the reactions were quenched, the 0D490 was observed. C. COMET assay results; 50 μM compound was incubated with HepG2 cells for 24 hrs. The cells were then added low-melt agarose and plated on microscope slides. The cells were lysed and the DNA was denatured and subject to electrophoresis. Finally, the DNA was stained with SYBR Green and 100 nuclei were counted for each sample, in each experiment; the experiment was performed in triplicate. […] Cells were fixed and nuclei were stained with DAPI and 1,000 cells were counted per sample; three independent experiments were performed.
# In an effort to characterize the toxicity of the compounds, an MTT assay was performed using human hepatocellular carcinoma, HepG2 cells and primary culture neurons to monitor the cell viability. […] The cytotoxicity of the compounds in primary neuronal cultures was determined using an LDH assay to measure cytolysis (FIG. 4B). […]
# [15] = molecular target: T2, Caspase-3 (Homo sapiens, UniProt P42574); test: Caspase-3 enzymatic assay (specificity); type: biochemical
# T2 construct: purchased Millipore
# T2 sequence (P42574 29-175 limits assumed, species assumed): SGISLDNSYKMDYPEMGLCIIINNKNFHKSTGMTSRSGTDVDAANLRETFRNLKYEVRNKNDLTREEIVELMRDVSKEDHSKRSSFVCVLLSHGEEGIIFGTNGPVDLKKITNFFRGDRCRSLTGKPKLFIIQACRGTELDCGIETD
# T2 sequence (P42574 176-277 limits assumed, species assumed): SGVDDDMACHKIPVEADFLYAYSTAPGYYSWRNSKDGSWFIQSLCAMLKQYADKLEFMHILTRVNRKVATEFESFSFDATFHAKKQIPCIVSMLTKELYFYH
# Procedure: as §2, §3
# (§4) Caspase-3 and 8 —The enzyme was pre-incubated with inhibitor in assay buffer (100 mM HEPES pH 7.4, 0.1% CHAPS, 10% Sucrose) for 10 min at 37° C. The reaction was initiated upon addition of 25 μM substrate (Ac-Asp-Glu-Val-Asp-AMC (Bachem)).
# [16] = molecular target: T3, Caspase-8 (Homo sapiens, UniProt Q14790); test: Caspase-8 enzymatic assay (specificity); type: biochemical
# T3 construct: purchased Millipore
# T3 sequence (Q14790 217-374 limits assumed, species assumed): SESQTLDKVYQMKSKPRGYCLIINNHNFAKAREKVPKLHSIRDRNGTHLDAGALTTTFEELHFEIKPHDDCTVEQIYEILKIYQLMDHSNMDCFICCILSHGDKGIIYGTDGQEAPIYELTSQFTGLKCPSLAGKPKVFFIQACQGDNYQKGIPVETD
# T3 sequence (Q14790 385-479 limits assumed, species assumed): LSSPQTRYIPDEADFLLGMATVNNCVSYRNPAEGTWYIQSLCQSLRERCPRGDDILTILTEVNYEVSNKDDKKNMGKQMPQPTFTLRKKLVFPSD
# Procedure: as §2, §3, §4
# [17] = molecular target: T4, Cathepsin-S (Homo sapiens, UniProt P25774); test: Cathepsin-S enzymatic assay (specificity); type: biochemical
# T4 construct: purchased Athens Research and Technology
# T4 sequence (P25774 115-331): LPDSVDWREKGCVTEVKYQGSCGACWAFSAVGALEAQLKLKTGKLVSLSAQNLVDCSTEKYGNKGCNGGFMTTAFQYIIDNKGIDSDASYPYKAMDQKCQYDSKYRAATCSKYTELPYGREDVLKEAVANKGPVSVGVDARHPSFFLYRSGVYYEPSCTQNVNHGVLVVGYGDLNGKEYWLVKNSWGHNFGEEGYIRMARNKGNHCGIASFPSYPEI
# Procedure: as §2, §3
# Cathepsin-S—100 nM enzyme was pre-incubated with inhibitor in assay buffer (100 mM NaH2PO4 pH 6.5, 100 mM NaCl) for 10 min at 37° C. The reaction was initiated upon addition of 25 μM substrate (Boc-Val-Leu-Lys-AMC (Bachem)).
# [18] = human, microsomes
# [19] = mouse, microsomes
compound,measurement,setting,value
Cc1cccc(NCc2ccc(O)c3ncccc23)c1C [Compound 12],dose dependence of APP cleavage after OGD,[1],dose-dependent decrease
same,cleavage of APP after OGD,[1]; 1 μM compound,blocked
same,"CYP inhibition, CYP3A-Testosterone",[2]; test concentration 3 μM,14.2%
same,"CYP inhibition, CYP3A-Testosterone",[2]; test concentration 10 μM,27.6%
same,AEP activity in OGD-treated neurons,[3],slight decrease
same,"CYP inhibition, CYP2D6",[4]; test concentration 3 μM,2.9%
same,"CYP inhibition, CYP2D6",[4]; test concentration 10 μM,−2.6%
same,"CYP inhibition, CYP2C19",[5]; test concentration 3 μM,13.4%
same,"CYP inhibition, CYP2C19",[5]; test concentration 10 μM,29.4%
same,"CYP inhibition, CYP1A2",[6]; test concentration 3 μM,28.4%
same,"CYP inhibition, CYP1A2",[6]; test concentration 10 μM,44.5%
same,Mean Remaining Parent (NADPH-free),[7],0%
same,Mean Remaining Parent (with NADPH),[7],1%
same,"CYP inhibition, CYP3A4-Midazolam",[8]; test concentration 3 μM,−2.5%
same,"CYP inhibition, CYP3A4-Midazolam",[8]; test concentration 10 μM,−2.5%
same,A -> B Papp,[9],1.4 10^−6 cm · s^−1
same,B -> A Papp,[9],3.7 10^−6 cm · s^−1
same,RE,[9],2.7
same,"CYP inhibition, CYP2C9",[10]; test concentration 3 μM,4.3%
same,"CYP inhibition, CYP2C9",[10]; test concentration 10 μM,−2.7%
same,Mean Remaining Parent (NADPH-free),[11],1%
same,Mean Remaining Parent (with NADPH),[11]; 30 min of incubation,1%
same,Pe,[12],<LLOQ
CN(C)c1ccc(N2C(=O)C=CC2=O)cc1 [Compound 22],IC50,[13],> 100 µM
same,genotoxicity (COMET and micronucleus assays),[14],the only test compound to show genotoxicity
same,IC50,[15],> 100 µM
same,IC50,[16],> 100 µM
same,IC50,[17],> 100 µM
CC(=O)CC(c1ccccc1)c1c(O)c2ccccc2oc1=O (centres unmarked) [Warfarin],Mean Remaining Parent (with NADPH),[18]; 0.5 h,96%
same,Mean Remaining Parent (NADPH-free),[18]; 30 min,104%
same,Mean Remaining Parent (NADPH-free),[19],100%
same,Mean Remaining Parent (with NADPH),[19],91%
